Test results from ChEMBL document CHEMBL5154879, “Induction of Genes Implicated in Stress Response and Autophagy by a Novel Quinolin-8-yl-nicotinamide QN523 in Pancreatic Cancer” (J Med Chem, 2022).
Active and inactive are the calls of the source. The rule behind the calls is not given here.

Experiments:
[1] = Downregulation of P1F1 gene expression in human MIA PaCa-2 cells assessed as fold change in P1F1 expression at 1 uM incubated for 24 hrs by Bru-seq analysis relative to control; type: functional
[2] = Upregulation of SERPINB8 gene expression in human MIA PaCa-2 cells assessed as fold change in SERPINB8 expression at 1 uM incubated for 24 hrs by Bru-seq analysis relative to control; type: functional
MIA PaCa-2 [3] = assay: Induction of cell cycle arrest in human MIA PaCa-2 cells assessed as accumulation of cells in G0/G1 phase at 0.5 uM incubated for 24 hrs by RNase/propidium iodide staining based flow cytometry analysis (reference value: 64.3%); type: functional
[4] = Downregulation of ANKDDIA gene expression in human MIA PaCa-2 cells assessed as fold change in ANKDDIA expression at 1 uM incubated for 24 hrs by Bru-seq analysis relative to control; type: functional
[5] = Upregulation of OSGIN1 gene expression in human MIA PaCa-2 cells assessed as fold change in OSGIN1 expression at 1 uM incubated for 24 hrs by Bru-seq analysis relative to control; type: functional
[6] = Toxicity in NOD/SCID mouse xenografted with human MIA PaCa-2 cells assessed as change in body weight at 30 mg/kg, ip administered five times a week starting from day 44 to 51 post first dose; type: organism-based; conditions: in vivo, 1224 h, time 51 day
MIA PaCa-2 [7] = assay: Upregulation of P53 pathway in human MIA PaCa-2 cells by gene set enrichment analysis; type: functional, cell-based
[8] = Cytotoxicity against human HFF-1 cells assessed as inhibition of cell growth incubated for 72 hrs by MTT assay; type: toxicity, cell-based
MIA PaCa-2 [9] = assay: Induction of apoptosis in human MIA PaCa-2 cells assessed as necrotic cells at 0.5 uM incubated for 24 hrs by Annexin V-FITC/PI staining based flow cytometry analysis (reference value: 2.7%); type: functional
MIA PaCa-2 [10] = assay: Upregulation of CHOP gene expression in human MIA PaCa-2 cells incubated for 72 hrs by Western blot analysis; type: functional, cell-based; conditions: dose <= 600.0 µM, DDE = dose-dependent effect
[11] = Upregulation of CXCL8 gene expression in human MIA PaCa-2 cells assessed as fold change in CXCL8 expression at 1 uM incubated for 24 hrs by Bru-seq analysis relative to control; type: functional
PANC-1 = assay: Inhibition of colony formation in human PANC-1 cells at 1 uM incubated for 10 to 14 days by crystal violet staining based assay; type: functional, cell-based; conditions: time 10-14 day
MIA PaCa-2 [12] = assay: Antitumor activity against human MIA PaCa-2 cells xenografted in NOD/SCID mouse assessed as tumor growth delay at 20 mg/kg, ip administered five times a week starting from day 10 to 44 post first dose and measured from day 17; type: functional, organism-based; conditions: time 44.0 day
MIA PaCa-2 [13] = assay: Downregulation of G2M checkpoint gene expression in human MIA PaCa-2 cells by gene set enrichment analysis; type: functional, cell-based
[14] = Cytotoxicity against HEK293 cells assessed as inhibition of cell growth incubated for 72 hrs by MTT assay; type: toxicity, cell-based; conditions: human
BXPC-3 = assay: Inhibition of colony formation in human BXPC-3 cells at 1 uM incubated for 10 to 14 days by crystal violet staining based assay; type: functional, cell-based; conditions: time 10-14 day
[15] = Toxicity in NOD/SCID mouse xenografted with human MIA PaCa-2 cells assessed as weakness at 10 to 20 mg/kg, ip administered five times a week for 44 days; type: organism-based; conditions: in vivo, 1056 h, dose 10-20 mg/kg, time 44 day
MIA PaCa-2 [16] = assay: Additive autophagy activity in human MIA PaCa-2 cells assessed as inhibition of colony formation at 0.001 to 0.1 uM incubated for 7 days in presence of autophagy inhibitor chloroquine by crystal violet staining based assay; type: functional, cell-based; conditions: dose 0.001-0.1 µM, time 7.0 day
MIA PaCa-2 [17] = assay: Downregulation of cell cycle gene expression in human MIA PaCa-2 cells; type: functional, cell-based
MIA PaCa-2 [18] = assay: Antitumor activity against human MIA PaCa-2 cells xenografted in NOD/SCID mouse assessed as tumor growth delay at 30 mg/kg, ip administered five times a week starting from day 44 to 51 post first dose; type: functional, organism-based; conditions: time 51.0 day
[19] = Downregulation of ESPL1 gene expression in human MIA PaCa-2 cells assessed as fold change in ESPL1 expression at 1 uM incubated for 24 hrs by Bru-seq analysis relative to control; type: functional
[20] = Toxicity in NOD/SCID mouse xenografted with human MIA PaCa- 2 cells assessed as morphological changes in heart at 10 to 20 mg/kg, ip administered five times a week for 44 days by H and E staining based inverted microscopic analysis; type: organism-based; conditions: in vivo, 1056 h, dose 10-20 mg/kg, time 44 day
MIA PaCa-2 [21] = assay: Antiproliferative activity against human MIA PaCa-2 cells assessed as inhibition of cell growth at 0.1 to 10 uM incubated for 1 to 72 hrs followed by compound washout with PBS and replacement with fresh culture medium and measured after 72 hrs by MTT assay; type: functional, cell-based; conditions: dose 0.1-10 µM, time 1-72 hrs, TDE = time-dependent effect
[22] = Upregulation of MAP1LC3B gene expression in human MIA PaCa-2 cells assessed as fold change in MAP1LC3B expression at 1 uM incubated for 24 hrs by Bru-seq analysis relative to control; type: functional
[23] = Toxicity in NOD/SCID mouse xenografted with human MIA PaCa- 2 cells assessed as morphological changes in spleen at 10 to 20 mg/kg, ip administered five times a week for 44 days by H and E staining based inverted microscopic analysis; type: organism-based; conditions: in vivo, 1056 h, dose 10-20 mg/kg, time 44 day
[24] = Upregulation of ATF3 gene expression in human MIA PaCa-2 cells assessed as fold change in ATF3 expression at 1 uM incubated for 24 hrs by Bru-seq analysis relative to control; type: functional
MIA PaCa-2 [25] = assay: Downregulation of mitotic spindle gene expression in human MIA PaCa-2 cells by gene set enrichment analysis; type: functional, cell-based
MIA PaCa-2 [26] = assay: Upregulation of MTOR signalling in human MIA PaCa-2 cells by gene set enrichment analysis; type: functional, cell-based
[27] = Downregulation of PLEKHG3 gene expression in human MIA PaCa-2 cells assessed as fold change in PLEKHG3 expression at 1 uM incubated for 24 hrs by Bru-seq analysis relative to control; type: functional
[28] = Toxicity in NOD/SCID mouse xenografted with human MIA PaCa- 2 cells assessed as morphological changes in liver at 10 to 20 mg/kg, ip administered five times a week for 44 days by H and E staining based inverted microscopic analysis; type: organism-based; conditions: in vivo, 1056 h, dose 10-20 mg/kg, time 44 day
MIA PaCa-2 [29] = assay: Induction of apoptosis in human MIA PaCa-2 cells assessed as late apoptotic cells at 0.1 uM incubated for 24 hrs by Annexin V-FITC/PI staining based flow cytometry analysis (reference value: 2.04%); type: functional
[30] = Downregulation of PLKI gene expression in human MIA PaCa-2 cells assessed as fold change in PLKI expression at 1 uM incubated for 24 hrs by Bru-seq analysis relative to control; type: functional
[31] = Downregulation of H2AFX gene expression in human MIA PaCa-2 cells assessed as fold change in H2AFX expression at 1 uM incubated for 24 hrs by Bru-seq analysis relative to control; type: functional
MIA PaCa-2 [32] = assay: Upregulation of apoptotic gene expression in human MIA PaCa-2 cells by gene set enrichment analysis; type: functional, cell-based

In the case of `O=C(Nc1cccc2cccnc12)c1cnccn1`, the “fold change (FC)” value [1] is reported as 0.28, the “fold change (FC)” value [2] is reported as 5.3 and the Activity (MIA PaCa-2 [3]) is reported as 44.5%. For the same compound, the “fold change (FC)” value [4] was 0.45, the “fold change (FC)” value [5] was 7.8 and the Activity [6] was “Non-Toxic”. For the same compound, the Activity (MIA PaCa-2 [7]) was “Active”, the IC50 at 72 h [8] was greater than 30000 nM and the Activity (MIA PaCa-2 [9]) was 1.4%. For the same compound, the Activity (MIA PaCa-2 [10]) was “Dde”, the “fold change (FC)” value [11] was 6 and the inhibition (PANC-1) was “Active”. For the same compound, the Activity (MIA PaCa-2 [12]) was “Active”, the Activity (MIA PaCa-2 [13]) was “Active” and the IC50 at 72 h [14] was 150 nM. For the same compound, the inhibition (BXPC-3) was “Active”, the Activity [15] was “Non-Toxic” and the Activity (MIA PaCa-2 [16]) was “Active”. The Activity (MIA PaCa-2 [17]) was “Active”, the Activity (MIA PaCa-2 [18]) was “Active” and the “fold change (FC)” value [19] was 0.4. The Activity [20] was “Non-Toxic”, the Activity (MIA PaCa-2 [21]) was “Tde” and the “fold change (FC)” value [22] was 6.8. For the same compound, the Activity [23] was “Non-Toxic”, the “fold change (FC)” value [24] was 22 and the Activity (MIA PaCa-2 [25]) was “Active”. The Activity (MIA PaCa-2 [26]) was “Active”, the “fold change (FC)” value [27] was 0.39 and the Activity [28] was “Non-Toxic”. The Activity (MIA PaCa-2 [29]) was 2.3%, the “fold change (FC)” value [30] was 0.47 and the “fold change (FC)” value [31] was 0.35. For the same compound, the Activity (MIA PaCa-2 [32]) was “Active”.
